The source of these data is patent publication US20170291905A1, “ARGININE […] INHIBITORS AND USES THEREOF” (Epizyme, Inc., priority 2014, published 2017).

full-length human PRMT8 isoform 1, sequence (Q9NR22 whole entry, canonical isoform): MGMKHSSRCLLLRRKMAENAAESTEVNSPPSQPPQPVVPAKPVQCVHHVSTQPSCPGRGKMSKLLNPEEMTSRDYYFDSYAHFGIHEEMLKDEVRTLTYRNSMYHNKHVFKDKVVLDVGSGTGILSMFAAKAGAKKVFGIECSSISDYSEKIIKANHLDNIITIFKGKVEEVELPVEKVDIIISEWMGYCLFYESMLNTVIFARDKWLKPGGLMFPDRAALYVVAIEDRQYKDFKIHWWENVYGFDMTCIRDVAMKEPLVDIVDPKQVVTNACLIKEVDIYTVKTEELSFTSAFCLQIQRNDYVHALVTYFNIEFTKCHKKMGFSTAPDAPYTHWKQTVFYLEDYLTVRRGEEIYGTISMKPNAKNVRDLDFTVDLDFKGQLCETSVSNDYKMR

The target in this assay is full-length human PRMT8 isoform 1 (Homo sapiens, UniProt Q9NR22). As to the kind of experiment: PRMT8 biochemical assay (3H-SAM Flashplate, histone H4 31-45 peptide). Conditions: 1.5 nM PRMT8, 30 min preincubation, 150 nM peptide. The gist of the method:
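Purified untagged full-length PRMT8 (1.5 nM) preincubated with compound 30 min at room temperature in 20 mM Bicine pH 7.6, then reacted with 150 nM biotinylated H4 peptide, 50 nM 3H-SAM plus 550 nM SAM, 2% DMSO. Stopped with 400 uM cold SAM; peptide captured on streptavidin Flashplate, counted; % inhibition vs DMSO/SAH controls fitted for IC50.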
The IC50 is the midpoint of a concentration-inhibition curve. In turn, `CNCCN(C)Cc1c[nH]nc1C1CCC(COC)(COCC2CCOCC2)CC1` (stereo not drawn) [compound 45] registered a half-maximal inhibitory concentration (IC50) of 11.2 nM. The figure for `CNCCN(C)Cc1c[nH]nc1C1CCC(COCC2CC2)(COCC2CC2)CC1` [compound 41, N1-((3-(4,4-bis((cyclopropylmethoxy)methyl)cyclohexyl)-1H-pyrazol-4-yl)methyl)-N1,N2-dimethylethane-1,2-diamine] is 9.27 nM; for `CN(C)CCN(C)Cc1c[nH]nc1[C@H]1CC[C@]2(CC1)CC(C)(C)CO2` [compound 43, N1-((3-((5r,8r)-3,3-dimethyl-1-oxaspiro[4.5]decan-8-yl)-1H-pyrazol-4-yl)methyl)-N1,N2,N2-trimethylethane-1,2-diamine] it is 97.2 nM; for `CCC1(CC)C[C@]2(CC[C@@H](c3n[nH]cc3CN(C)CCNC)CC2)NC1=O` [compound 48, (5r,8r)-3,3-diethyl-8-(4-((methyl(2-(methylamino)ethyl)amino)methyl)-1H-pyrazol-3-yl)-1-azaspiro[4.5]decan-2-one] it is 70.6 nM. The figure for `CNCCN(C)Cc1c[nH]nc1C1CCC(CO)(CO)CC1` [compound 44, (4-(4-((methyl(2-(methylamino)ethyl)amino)methyl)-1H-pyrazol-3-yl)cyclohexane-1,1-diyl)dimethanol] is 34.4 nM; for `CN(C)CCN(C)Cc1c[nH]nc1[C@H]1CC[C@@]2(CC1)CC(C)(C)CO2` [compound 42, N1-((3-((5S,8S)-3,3-dimethyl-1-oxaspiro[4.5]decan-8-yl)-1H-pyrazol-4-yl)methyl)-N1,N2,N2-trimethylethane-1,2-diamine] it is 33.8 nM; for `CCOCCOCC1(COCCOCC)CCC(c2n[nH]cc2CN(C)CCNC)CC1` [compound 39, N1-((3-(4,4-bis((2-ethoxyethoxy)methyl)cyclohexyl)-1H-pyrazol-4-yl)methyl)-N1,N2-dimethylethane-1,2-diamine] it is 139 nM. In turn, `CCC1(CC)C[C@]2(CC[C@H](c3n[nH]cc3CN(C)CCNC)CC2)NC1=O` [compound 47, (5s,8s)-3,3-diethyl-8-(4-((methyl(2-(methylamino)ethyl)amino)methyl)-1H-pyrazol-3-yl)-1-azaspiro[4.5]decan-2-one] displayed a 50% inhibitory concentration (IC50) of 14.9 nM.

In turn, `CNCCN(C)Cc1c[nH]nc1C1=CCC2(CC1)CC(C)(C)CO2` (stereo not drawn) [compound 46, N1-((3-(3,3-dimethyl-1-oxaspiro[4.5]dec-7-en-8-yl)-1H-pyrazol-4-yl)methyl)-N1,N2-dimethylethane-1,2-diamine] came in with an IC50 of 24.6 nM. Take `CC[C@H]1CC[C@@H](c2n[nH]cc2CN(C)CCNC)CC1` [compound 1]: half-maximal inhibition (IC50) was put at 11.1 nM. Compound `CNCCN(C)Cc1ccnn1[C@H]1CC[C@@]2(CC1)CC(C)(C)CO2` [compound 49, N1-((1-((5s,8s)-3,3-dimethyl-1-oxaspiro[4.5]decan-8-yl)-1H-pyrazol-5-yl)methyl)-N1,N2-dimethylethane-1,2-diamine] returned an IC50 of 16.7 nM.

The compound `CNCCN(C)Cc1c[nH]nc1C1CCC(COCCC2CCOCC2)(COCCC2CCOCC2)CC1` [compound 40] gave a concentration for half-maximal inhibition (IC50) of 45.5 nM.
